Results reported in patent publication US7498127B2, “Method of screening cell growth inhibitor and cell growth inhibitor” (priority 2002, dated 2009).

System: nuclear export of the PLZF protein
Experiment: Inhibitory effect against the nuclear export of the PLZF protein by processing (CFP-PLZF in nucleus, TPA treatment)
Assay type: cell-based, Human
Conditions: HT1080/HB-EGF transfected with CFP-PLZF; 100 nM TPA 60 min in copresence of LMB 10 ng/ml; FIG. 7
Procedure: Each transfectant containing CFP-PLZF was cultured for 24 hours, and then 100 nM TPA was added thereto for treatment for 60 min. The number (N) of the cells expressing CFP-PLZF in the nucleus and the number (C) of the cells in which CFP-PLZF has leaked into the cytoplasm are counted under observation with a fluorescent microscope before and after the TPA treatment, and the ratio of the number (N) of the cells expressing CFP-PLZF in the nucleus to the total number (N+C) of the cells expressing CFP-PLZF is calculated and thus obtained (N/(N+C)×100 (%)). The wild-type HT1080 cells (the above described 1)) were used as the control for comparison.
HT1080/HB-EGF to which CFP-PLZF had been transfected (see Test Example 3) was cultured for 24 hours, and then treated with 100 nM TPA in the copresence of LMB (10 ng/ml) for 60 min. The number of the cells expressing CFP-PLZF in the nucleus was measured with a microscope before and after the TPA treatment and the ratio was calculated.
As the control, the ratio of the number of the cells expressing CFP-PLZF before and after the TPA treatment when the TPA treatment was performed without adding LMB was obtained, and compared with the ratio when LMB was added. Thus, the compound LMB to be tested was evaluated. • 3. Test Results

CCC(=C/[C@H](C)C/C=C/C(C)=C/[C@@H](C)C(=O)[C@@H](C)[C@H](O)[C@@H](C)C/C(C)=C/C(=O)O)/C=C/[C@@H]1OC(=O)C=C[C@@H]1C [LMB, reptomycin B]
inhibition of the nuclear export of the PLZF protein (ratio of cells expressing CFP-PLZF in the nucleus before and after TPA treatment): inhibited the nuclear export of the PLZF protein
